Here are results for 2 molecules from patent US20240374557A1, “BETA ADRENERGIC RECEPTOR COMPOSITIONS AND METHODS OF USE THEREOF” (THE BOARD OF REGENTS OF THE UNIVERSITY OF TEXAS SYSTEM, priority 2021, published 2024).

The structures appear in SMILES notation.

Data set [1] has as its system Ad-Adrb1KO mice and littermate controls. Kind of data set: Acute CL-316243 injection: body weight, blood glucose, BAT mass and BAT histology. The format is in vivo. The procedure: Physiological relevance of crosstalk between ADRB1 and ADRB3 in adipocytes was assessed. […] Four hours after CL-316243 injection, mice were sacrificed and BAT depots were dissected.
Treatment with CL 316, 243.
Histology. […] Samples were then dehydrated, embedded in paraffin, and cut into […] sections. Sections were stained with hematoxylin and eosin (H&E) to perform general histology. All pictures were taken at a magnification of 20× on a Zeiss Axioskop 2 microscope connected to a digital camera (AxioCam; Zeiss, Thornwood, NY). Only the sharpness, contrast, and brightness were adjusted.

In data set [2] the test system is ADRB3. The conditions noted are these: cited from earlier work.
The subject of data set [3] is Adrb1, Ppargc1a and Ucp1 mRNA expression in eWAT, iWAT and BAT. The experiment in a line: Quantitative real-time PCR of adipose depots after CL-316243 injection. The format is in vivo, mice. The conditions noted are these: CL-316243 0.1 mg/kg. Here is the method: Quantitative real-time PCR. […] Total mRNA was isolated from eWAT, iWAT and interscapular BAT using the Aurum™ Total RNA Fatty and Fibrous Tissue Kit (Bio-Rad, 732-6830). RNA concentration was estimated from absorbance at 260 nm. cDNA synthesis was performed using the iScript Advanced cDNA Synthesis Kit (Bio-Rad, 172-5038). mRNA extraction and cDNA synthesis were performed following the manufacturer's instructions. cDNA was diluted in DNase-free water before quantification by real-time PCR. Relative quantification of gene expression was performed on diluted cDNA in duplicate samples using a CFX384 Touch™ real-time PCR (Bio-Rad). Fold differences in targeted mRNA expression were calculated using the 2-delta cycle threshold method and data were normalized to beta-microglobulin (B2m) expression. TaqMan gene expression assays for Adrb1 (Mm00431701_s1), B2m (Mm00437762_m1), Ppargc1a (Mm01208835_m1), and Ucp1 (Mm01244861_m1) were purchased from ThermoFisher Scientific.
(In qPCR the cycle at which signal appears reflects the starting amount.)

The test system of data set [4] is Ad-Adrb1KO mice and littermate controls. The experiment in a line: Co-administration of CL-316243 with insulin or glucose: blood glucose, plasma insulin, NEFA. The conditions noted are these: for increase in plasma insulin levels: CL-316243 0.1 mg/kg co-administered with glucose, 30 minutes after vs before.
Protocol: (§3) Treatment with CL 316, 243. Mice were fasted for 2 hours (0800-1000) and then given an injection of the ADRB3 agonist CL 316,243 (“CL”, 0.001-1 mg/kg) or vehicle (saline). In some cohorts, human recombinant insulin (Eli Lilly) or D-glucose (Sigma 49163-100ML) was co-administrated with CL.
Evaluation of insulin and NEFA levels. Blood from tail vein was collected before and 30 minutes after co-administration of CL with D-glucose into EDTA tubes. Plasma was isolated by centrifugation (4000 g×10 minutes at 4° C.). Plasma insulin (Mouse Ultrasensitive Insulin ELISA, ALPCO, 80-INSMSU-E01) and NEFA (FUJIFILM Wako Diagnostics-NEFA Reagent, 999-34691, 995-34791, 991-34891, 993-35191) levels were measured following manufacturer recommendations.
Data set [5] has the same test system. The experiment in a line: Blood glucose over 60 minutes after CL-316243 dose range. The conditions noted are these: for reducing glycemia: 0.001 mg/kg.
Protocol: Tail vein blood glucose levels were then monitored using a glucometer (Bayer's Contour Blood Glucose Monitoring System.
as §3
Data set [6] relates to C57BL/6N mice on 42% high fat diet. The experiment in a line: 4-week treatment of high fat diet fed mice: body weight, body composition, cholesterol, oral glucose tolerance. The format is in vivo. To be noted: compared to placebo. Here is the method: (§1) In brief, three cohorts of male C57BL/6N mice, including a total of 100 mice, were used in these studies. Five-week-old mice were placed on a 42% high fat diet for 4 weeks. The treatments were provided for 4 weeks, during which time mice were maintained on the 42% high fat diet.
(§2) Mirabegron, an ADRB3 agonist, was administered at an 8 mg/kg daily dose. Atenolol is an ADRB1 antagonist and was administered to the mice at, on average, 60 mg/kg per day. Mirabegron or its buffer (5% PEG 400; placebo) were administered to the mice daily by gavage for 4 weeks. Mice were also given ad libitum access to a water bottle or a water bottle containing atenolol. […] Oral glucose tolerance testing was performed on overnight fasted mice administered 5 μL 60% glucose solution per g BW using a gavage tube; blood glucose levels were determined with a glucometer using blood from tail nicks at times 0, 15, 30, 60 and 120 minutes. Blood pressure measurements were obtained using a CODA-HT8 High Throughput Noninvasive Blood Pressure system with 8 activated channels for use with mice and rats from Kent Scientific. Methods and statistical analysis were performed as described above.

Data set [7] shares this test system. To be noted: 4 weeks, compared to placebo; mirabegron 8 mg/kg daily, atenolol 60 mg/kg per day. Here is the method:
as §1, §2

[8] abbreviates: CL-316243 0.1 mg/kg, Ad-Adrb1KO mice.
Setting [9] is: every adipose depot, independent of the genotype.
[10] abbreviates: 4 weeks, mirabegron 8 mg/kg daily gavage, atenolol 60 mg/kg per day in water.

The EC50 is the concentration at which the effect is half-maximal. Take `C[C@H](Cc1ccc2c(c1)OC(C(=O)[O-])(C(=O)[O-])O2)NC[C@H](O)c1cccc(Cl)c1.[Na+].[Na+]` [CL-316243, 5-[(2R)-2-[[(2R)-2-(3-Chlorophenyl)-2-hydroxyethyl]amino]propyl]-1,3-benzodioxole-2,2-dicarboxylic acid disodium salt]: the BAT mass entry in data set [1] (setting [8]) is “comparable to CL-316243-treated littermates”. For the same molecule, the “CL-316243-induced mobilization of intracellular triglycerides in BAT” value in data set [1] (setting [8]) is “markedly improved”. Further, in data set [1] (CL-316243 0.1 mg/kg, mice lacking Adrb1 in adipocytes), the “lipid droplets in H&E-stained BAT” value was “near-complete depletion”. Also, in data set [1] (acute CL-316243 0.1 mg/kg, Ad-Adrb1KO mice and littermate controls), the “weight of the mice” value is recorded as “did not significantly change”. In data set [1] (acute CL-316243 0.1 mg/kg, Ad-Adrb1KO vs littermate controls), the “efficiency to reduce blood glucose levels (treatment x genotype)” value is reported as “significant interaction”. The “selectivity for ADRB3 over ADRB1 and ADRB2” value in data set [2] is listed as “over 10000 fold”. The EC50 in data set [2] (read-out: EC50 (ADRB3 agonist)) was 3 nM. In addition, the “Adrb1 mRNA expression (significantly reduced or not)” value in data set [3] (BAT, littermate controls) is reported as “not”; in data set [3] (iWAT, littermate controls), “not in iWAT”. In data set [3] (eWAT, littermate controls), the “Adrb1 mRNA expression” value is reported as “significantly reduced”. Besides, the “Ppargc1a mRNA expression” value in data set [3] (setting [9]) is on record as “increase”. In addition, the “Ucp1 mRNA expression” value in data set [3] (setting [9]) is reported as “increase”. The “increase in plasma insulin levels” value came to 43 fold in data set [4] (Ad-Adrb1KO mice) and 12 fold in data set [4] (littermate controls). In addition, the glucose clearance result in data set [4] (CL-316243 0.1 mg/kg co-administrated with glucose, Ad-Adrb1KO mice) was “drastically improved”. Further, in data set [4] (CL-316243 0.1 mg/kg in combination with insulin, Ad-Adrb1KO mice compared to control littermates), the insulin sensitivity result is “slight but significant improvement”. Besides, in data set [4] (CL-316243 co-administrated with glucose), the “plasma NEFA levels between Ad-Adrb1KO mice and littermate controls” value is on record as “no difference”. Also, the reducing glycemia result in data set [5] (Ad-Adrb1KO mice) was “still effective”; in data set [5] (littermate controls), “not littermate controls”. In data set [5] (both genotypes, even at low dose of 0.01 mg/kg, 60-minute period), the blood glucose entry was “glucose lowering effect”.

Regarding `Nc1nc(CC(=O)Nc2ccc(CCNC[C@H](O)c3ccccc3)cc2)cs1` [mirabegron], in data set [6] (setting [10]), the LDL cholesterol entry is reported as “significant decreases”, the epididymal fat mass entry is “significant decreases”, the total body weight result was “significant decreases” and the total cholesterol result is “significant decreases”. The total fat mass result in data set [6] (setting [10]) is on record as “significant decreases”. In data set [6] (oral glucose tolerance test after 4 weeks), the “glucose tolerance (blood glucose area under the curve)” value was “significant improvements”. Also, in data set [7], the “diastolic blood pressure (DBP)” value is given as “elevated”, the “mean arterial blood pressure (MBP)” value was “elevated” and the “systolic blood pressure (SBP)” value was “elevated”.
